Marks after values point to notes of the source that are not given here.
What was measured:
zebrafish = assay: Arachidonic acid-induced thrombosis in zebrafish; format: in vivo; conditions: for Staining intensity of cardiac red blood cells (pixels) (mean ± se): 3 h pretreatment, arachidonic acid 1.5 h, n = 10; for Antithrombotic effect (%): vs. model group, arachidonic acid-induced thrombosis
Procedure: A total of 270 melanin allele mutant translucent albino strain zebrafish at 3 dpf were randomly selected, with 30 zebrafish per well in six-well plates. The concentrations of LS-102 were 6.25, 12.5, 25, 50, and 100 µg/ml, while that of AGS IV was 100 µg/ml, and the positive control drug aspirin was 25 µg/ml. After treatment with LS-102 and AGS IV for 3 h, arachidonic acid aqueous solution was administered for 1.5 h to induce a thrombosis model in zebrafish in all experimental groups except the normal group. After staining with o-anisidine, zebrafish were randomly selected from each experimental group and observed under a dissecting microscope and photographed. Data were collected to qualitatively evaluate thrombosis in zebrafish, and the intensity of cardiac erythrocyte staining (length of venous thrombus vs. number of cardiac erythrocytes) in zebrafish was analyzed and counted to establish, the preventive effect of LS-102 and AGS IV with aspirin on thrombosis in zebrafish. The formula was calculated as follows:
Thromboprophylactic effect (%) = S (drug administration group)−S (model group)/S (nomal control group)−S (model group)×100%

HSA [1] = molecular target: T1, HSA (Homo sapiens, UniProt P02768); assay: Site marker competitive experiments (warfarin, ibuprofen) by equilibrium dialysis; format: in vitro ADME; conditions: drug 0.476 mg/ml, n = 3, read-out: Plasma protein binding (converted)
T1 sequence (P02768 25-609): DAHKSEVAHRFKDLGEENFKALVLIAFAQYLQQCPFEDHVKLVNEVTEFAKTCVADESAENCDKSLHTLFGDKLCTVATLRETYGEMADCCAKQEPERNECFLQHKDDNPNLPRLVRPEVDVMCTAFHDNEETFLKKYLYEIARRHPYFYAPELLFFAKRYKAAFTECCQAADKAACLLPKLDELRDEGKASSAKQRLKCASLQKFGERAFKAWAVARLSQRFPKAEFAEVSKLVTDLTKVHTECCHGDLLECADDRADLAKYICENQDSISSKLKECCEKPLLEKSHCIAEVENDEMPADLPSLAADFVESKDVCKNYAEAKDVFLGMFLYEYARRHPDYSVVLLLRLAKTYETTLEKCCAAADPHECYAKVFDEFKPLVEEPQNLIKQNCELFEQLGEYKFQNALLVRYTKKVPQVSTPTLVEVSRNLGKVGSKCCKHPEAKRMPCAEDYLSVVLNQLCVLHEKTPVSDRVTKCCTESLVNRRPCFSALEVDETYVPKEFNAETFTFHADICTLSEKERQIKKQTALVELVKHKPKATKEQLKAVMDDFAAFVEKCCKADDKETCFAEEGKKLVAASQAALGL
Procedure: The site marker competitive experiments were performed using two classical site probes, warfarin and ibuprofen, which were selected as the markers of subdomain IIA (site I) and subdomain IIIA (site II) separately of HAS ([Ghuman et al., 2005]). The procedure was consistent with the method described in section 2.5, except that the concentrations of AGS IV and LS-102 were both fixed at 0.476 mg/ml, while the external dialysis solution was changed to contain the probe with a final concentration of 0, 0.06, 0.3, 1.2 mg/ml PBS solution. Briefly, the AGS IV/LS-102 HSA mixture (0.5 ml drug and 0.5 ml HSA) was separately incubated with three different concentrations of probe to evaluate the effects of warfarin or ibuprofen on drug-protein binding influence. Three replicates of each concentration were prepared. After equilibrium dialysis, the internal and external dialysates were analyzed by UHPLC-MS/MS.

[2] = ref Xu et al., 2016; cited from earlier work
HSA [3] = molecular target: T1, HSA; assay: Plasma protein binding rate by equilibrium dialysis and UHPLC-MS/MS; format: in vitro ADME; conditions: human, plasma, equilibrium dialysis 72 h at 4 °C, n = 3, read-out: Protein binding rate (%, Mean±SD) (converted)
Procedure: The binding rate of AGS IV/LS-102 and HSA was determined using a slightly modified equilibrium dialysis method ([Metsu et al., 2020]). […] The stock solutions of HSA (0.5 ml) and drug group (0.5 ml) were placed in a dialysis membrane bag that was ligated at both ends and then immersed in a test tube filled with 50 ml of PBS solution for 72 h at 4 °C. After equilibrium, a 0.5-ml solution of outer dialysate and internal dialysate was collected into a 2-ml EP tube, and 10 µL IS (digoxin, 0.1 mg/ml) solution was added to each tube. Both samples were added to 1.5 ml of acetonitrile and vortexed for 3 min, and then the samples were separated via centrifugation at 18,000 × g for 20 min. The supernatants were transferred to another EP tube and dried under a nitrogen stream. The residue was redissolved in 1 ml methanol, sonicated for 2 min, vortexed for 3 min, and centrifuged at 18,000 × g for 10 min. The supernatant was filtered with a 0.22 µm microporous syringe filter in a 2 ml sample vial, and 1 µL was injected into the UHPLC-MS/MS system for analysis. The plasma protein binding rate was calculated according to the following formula ([Talbert et al., 2002]): Plasma binding rate=Internal drug concentration−External drug concentration/Initial drug concentration ×100%

zebrafish embryos [4] = assay: Astemizole-induced cardiotoxicity in zebrafish embryos: heart rate and SV-BA spacing; format: in vivo; conditions: 4 µM astemizole; for Heart rate (beats/min) (Mean±SE) / SV-BA spacing (µm) (Mean±SE): 250 µg/ml, n = 10
Procedure: A total of 270 wild-type AB zebrafish at 3 dpf were randomly selected, and 30 zebrafish were plated in each well of a six-well plates. The concentrations of LS-102 were 27.8, 83.3 and 250 µg/ml, AGS IV was 250 µg/mL. A normal control group (fish culture water) and a 4 µM astemizole model control group were also established. Ten zebrafish were randomly selected from each group, and the heart rate and venous sinus-to-arterial bulb distance (SV-BA) of zebrafish were observed under a dissecting microscope after 2 h, 6 h and 24 h of LS-102 and AGS IV treatment. Images were collected by photographing, and the ameliorative effect of LS-102 and AGS IV on astemizole-induced cardiotoxicity in zebrafish was evaluated by the statistical significance of the heart rate and the SV-BA interval index.

zebrafish embryos [5] = assay: Astemizole-induced toxicity in zebrafish heart development; format: in vivo; conditions: 250 µg/mL, n=30
Procedure: A total of 270 wild-type AB zebrafish at 2 h post-fertilization (2 hpf) were randomly selected, and 30 zebrafish were plated in each well of a six-well plates. The concentrations of LS-102 were 27.8, 83.3 and 250 µg/ml, while that of AGS IV was 250 µg/mL. A normal control group (fish culture water) and a 4 µM astemizole model control group were also established. After LS-102 and AGS IV were cotreated with astemizole for 48 h, zebrafish heart development was observed and photographed under a microscope to evaluate the ameliorative effect of LS-102 and AGS IV on astemizole-induced toxicity in zebrafish heart development.

## CC(=O)Oc1ccccc1C(=O)O [Aspirin, aspirin, reference compound]
zebrafish; 25 µg/ml
  Staining intensity of cardiac red blood cells (pixels) (mean ± se): 2036 ± 92 pixels
  Antithrombotic effect (%): 70^*** %
zebrafish; 25 µg/ml, listed as aspirin
  Staining intensity of cardiac red blood cells (pixels) (mean ± se): 2036 pixels
  Antithrombotic effect (%): 70%

## CC(C)(O)C1CCC(C)(C2C(O)CC3(C)C4CC(OC5OC(CO)C(O)C(O)C5O)C5C(C)(C)C(OC6OCC(O)C(O)C6O)CCC56CC46CCC23C)O1 [AGS IV, 3-O-β-D-xylopyranosyl-6-O-β-D-glucopyranosyl-cycloastragenol, reference compound]
HSA [1]; with ibuprofen 0.06 mg/ml
  fraction unbound at 72 h, 0.476 mg/ml: 0.0718
HSA [1]; with ibuprofen 0.3 mg/ml
  fraction unbound at 72 h, 0.476 mg/ml: 0.0613
HSA [1]; with ibuprofen 1.2 mg/ml
  fraction unbound at 72 h, 0.476 mg/ml: 0.0281
HSA [1]; with warfarin 0.06 mg/ml
  fraction unbound at 72 h, 0.476 mg/ml: 0.051
HSA [1]; with warfarin 0.3 mg/ml
  fraction unbound at 72 h, 0.476 mg/ml: 0.089
HSA [1]; with warfarin 1.2 mg/ml
  fraction unbound at 72 h, 0.476 mg/ml: 0.0781
HSA [1]; without site markers
  fraction unbound at 72 h, 0.476 mg/ml: 0.0333
[2]
  Degree of protein binding with human plasma: up to 86.69%
HSA [3]; drug 0.238 mg/ml
  fraction unbound at 72 h, 0.238 mg/ml: 0.0538
HSA [3]; drug 0.476 mg/ml
  fraction unbound at 72 h, 0.476 mg/ml: 0.0258
HSA [3]; drug 0.714 mg/ml
  fraction unbound at 72 h, 0.714 mg/ml: 0.0594
Zebrafish embryos [4]; 2 h
  Heart rate (beats/min) (Mean±SE): 148 ± 1 beats/min
  SV-BA spacing (µm) (Mean±SE): 210 ± 4 µm
Zebrafish embryos [4]; 6 h
  Heart rate (beats/min) (Mean±SE): 146 ± 2 beats/min
  SV-BA spacing (µm) (Mean±SE): 242 ± 7 µm
Zebrafish embryos [4]; 24 h
  Heart rate (beats/min) (Mean±SE): 75 ± 25 beats/min
  SV-BA spacing (µm) (Mean±SE): 241 ± 4 µm
  Effect on astemizole-induced heart rate slowing and SV-BA spacing increase (in words): no significant changes
zebrafish; 100 µg/ml
  Staining intensity of cardiac red blood cells (pixels) (mean ± se): 1446 ± 54 pixels
  Antithrombotic effect (%): 5%
Zebrafish embryos [5]; 4 µM astemizole, 48 h
  Phenotype: cardiac capsular oedema, lack of blood flow (share of zebrafish): 100% cardiac capsular oedema, lack of blood flow
Zebrafish embryos [5]; cotreated with 4 µM astemizole 48 h from 2 hpf
  Mortality: 3.3%

Reference: PMC9537572, “Elucidation of the binding mechanism of astragaloside IV derivative with human serum albumin and its cardiotoxicity in zebrafish embryos” (Frontiers in Pharmacology, 2022)
